Values of other authors, collected in patent US20190167612A1, “PHARMACEUTICAL FORMULATION FOR ORAL ADMINISTRATION WITH CONTROLLED DISSOLUTION RATE COMPRISING SUSTAINED-RELEASE PELLETS CONTAINING TAMSULOSIN HYDROCHLORIDE” (HANMl PHARM. CO., LTD., priority 2016, published 2019).
Counter-ions that a name gives are not always drawn.

Assays:
[1] = in vivo

Structure (SMILES): CCOc1ccccc1OCCN[C@H](C)Cc1ccc(OC)c(S(N)(=O)=O)c1 [Tamsulosin hydrochloride, (R)-5-[2-[[2-(2-ethoxyphenoxy)ethyl]-amino]propyl]-2-methoxy-benzenesulfonamide]
- Bioavailability [1]: ≥ 90%
- Solubility in water: slight solubility in water
